Legend:
[1] = system: sebocytes; assay: High content screening (HCS) imaging of sebocytes: lipid droplets (BODIPY) and nuclei (Hoechst); assay type: cell-based; details: for Nuclear count / Size of nucleus: 5 mmol.L^−1, mean ± SD, holocrine secretion
Method: Cell culture. […] D2650) in liquid nitrogen have been thawed in a water bath at 37° C. and directly washed with prewarmed […] culture media (Table 1). 3T3m cells were plated at 40.10^3 cells·cm^2 in a 175 cm^2 flask (Thermoscientific Ref. 159910) and incubated 2 hours at 37° C., 5% CO2. […] Vials containing sebocytes were thawed in a water bath at 37° C. and directly washed with prewarmed […] culture media. Sebocytes were plated at 2600 cells·cm^2 in a 175 cm^2 flask containing attached 3T3m cells and incubated (37° C., 5% CO2) to reach 70-80% confluence. After 5 days, cells were harvested using trypsin (Gibco Ref. 25300) and transferred in 96 well plates (10×10^3 cells per well, Greiner Bio-one Ref. 655956) and incubated (37° C., 5% CO2). Cell treatment. […] For valeric acid, the pH in modified cell media was neutralized with NaOH (Sodium hydroxide, Sigma 283060). […]) were both dissolved in pure ethanol (Merck Ref. 1.00983) for a final concentration per well of 60 μmar'. For these treatments, modified cell media supplemented with pure ethanol was used as controls. Supernatants (25%) sampled in exponential and stationary phases were neutralized with NaOH and were controlled with modified cell media supplemented at 25% with pure bacterial culture media. All conditions were repeated 8 times (n=8) for SOFA experiments and 24 times (n=24) for supernatants assays. Microplates were incubated 48 hours (37° C., 5% CO2) and directly sampled and/or stained and analyzed. Cell staining. […] Lipid droplets were stained with BODIPY (Invitrogen Ref. […]) diluted in DPBS solution supplemented with delipidated BSA (Bovin Serum Albumin, Sigma Ref. A7906). Nuclei were stained with Hoechst (Invitrogen, Ref. H3570) diluted in DPBS solution. High content imaging, images analysis and statistics. […] Images were analyzed using the MetaXpress image based module Transfluor (Molecular Devices). Results were exported into GraphPad Prism (version 7.01) to determine statistical significance using One-way ANOVA and expressed on bar graph as mean±SD or on box plot±min and max. *: […] Sebocytes were seeded in 96 well plates, followed by treatment with SOFA and/or LCFAs with at least 8 replicate wells (1 column) for each condition.

[2] = system: sebocytes; assay: Quantification of secreted triglycerides (TGs) in sebocyte supernatants; assay type: cell-based; details: for % of excreted TGs (compared to control) / FC (compared to control) of excreted TGs: 5 mmol.L^−1, 24 h
Method: Cell culture. Vials containing 3T3 mitomycine treated cells stored in 20% DMSO (Dimethylsulf oxide, Sigma Ref. D2650) in liquid nitrogen have been thawed in a water bath at 37° C. and directly washed with prewarmed G7F culture media (Table 1). 3T3m cells were plated at 40.10^3 cells·cm^2 in a 175 cm^2 flask (Thermoscientific Ref. 159910) and incubated 2 hours at 37° C., 5% CO2. Sebocytes were obtained from primary cell line and stored in 10% DMSO in liquid nitrogen. Vials containing sebocytes were thawed in a water bath at 37° C. and directly washed with prewarmed G7F culture media. Sebocytes were plated at 2600 cells·cm^2 in a 175 cm^2 flask containing attached 3T3m cells and incubated (37° C., 5% CO2) to reach 70-80% confluence. After 5 days, cells were harvested using trypsin (Gibco Ref. 25300) and transferred in 96 well plates (10×10^3 cells per well, Greiner Bio-one Ref. 655956) and incubated (37° C., 5% CO2).
Cell treatment. After 24 hours, cell media was replaced by modified cell media (G7F w/o hydrocortisone and w/o antibiotic-antimycotic) supplemented with: modified cell media (control), sodium acetate (CH3COONa, Sigma Ref. 32319), sodium propionate (CH3CH2COONa, Sigma Ref. P1880), sodium butyrate (CH3(CH2)2COONa Sigma Ref. 303410), valeric acid (CH3(CH2)3COOH, Sigma Ref. 75054). For valeric acid, the pH in modified cell media was neutralized with NaOH (Sodium hydroxide, Sigma 283060). Palmitic acid (C16:0, Cayman Ref. 10006627) and linoleic acid (C18:2 cis 9.12, Sigma Ref. L1376) were both dissolved in pure ethanol (Merck Ref. 1.00983) for a final concentration per well of 60 μmar′. For these treatments, modified cell media supplemented with pure ethanol was used as controls. Supernatants (25%) sampled in exponential and stationary phases were neutralized with NaOH and were controlled with modified cell media supplemented at 25% with pure bacterial culture media. All conditions were repeated 8 times (n=8) for SOFA experiments and 24 times (n=24) for supernatants assays. […]
Triglycerides quantification. Assays have been realized using Triglycerides Assays Kit—Quantification (Abcam, ref. Ab65336) following manufacturer's instructions. Each supernatant of the 8 replicates have been sampled (50 μl) and analyzed following the colorimetric detection method of the kit (OD 570 nm) using a plate reader Infinite 200PRO (Tecan).
Holocrine secretion is the final step of sebogenic process wherein the mature cells burst to release the lipid contents. Promotion of holocrine secretion by SOFA was based on observations and interpretations of a lower number of cells in association with an enlargement of nuclear area.

[3] = sebocytes, 2.5, 5, 10 and 15 mmol·l^−1

CC(=O)[O-].[Na+] [Acetate, sodium acetate, reference compound]
de novo lipid induction compared to the control ([1]; sebocytes, 5 mmol.L^−1): significant | Nuclear count ([1]; sebocytes): 18574 ± 2148 = | Size of nucleus ([1]; sebocytes): 215 ± 5 = | Nuclear count ([1]; sebocytes, listed as acetate): no effect | Size of nucleus ([1]; sebocytes, listed as acetate): no effect | % of excreted TGs (compared to control) [2]: −10% = | FC (compared to control) of excreted TGs [2]: FC = 0.90, =

CCCCC(=O)O [valerate, valeric acid]
nuclear count per well [1, 3]: decrease in the nuclear count per well | % of TGs excreted ([2]; 15 mmol·l−1, 24 h): +100% | FC of TGs excreted ([2]; 15 mmol·l−1, 24 h): ~2

CCCC(=O)[O-].[Na+] [butyrate, sodium butyrate]
nuclear count per well [1, 3]: decrease in the nuclear count per well | FC of TGs excreted ([2]; 15 mmol·l−1, 24 h): FC of TGs in B15>FC of TGs in B5

CCC(=O)[O-].[Na+] [Proprionate, sodium propionate]
nuclear count per well [1, 3]: decrease in the nuclear count per well | size of LDs compared to controls [1, 3]: LDs increased in size as the concentration of propionate increased | number of LDs per cell ([1]; sebocytes, pure propionate 5 mmol·l^−1): about 12 LDs/cell | % of excreted TGs (compared to control) ([2]; listed as P5): +20% | FC (compared to control) of excreted TGs ([2]; listed as P5): ~1.2

Source: patent US20220047475A1, “COSMETIC USE OF A SHORT CHAIN FATTY ACID (SCFA) FOR PREVENTING AND/OR TREATING DRY SKIN AND/OR AGED SKIN” (L'OREAL, priority 2018, published 2022)
